Data published in patent US11413302B2, “Use of carrimycin or active ingredients thereof and use thereof” (SHENYANG FUYANG PHARMACEUTICAL TECHNOLOGY CO., LTD., priority 2018, dated 2022).

Tests used:
[1] = tested on: rats induced by Aβ1-42; assay: rat Y-maze experiment, Aβ1-42 AD model; format: in vivo, Sprague Dawley rats; conditions: 30 mg/kg
Procedure: The rat Y-maze experiment: on the 12th day after the administration, the Y-maze experiment was performed on the groups of rats. […] In the experiment, the rats were placed into the tip of the arm A, and were permitted to freely enter and leave the three arms. The total time quantity of entering the arms and the order of entering the arms within 8 min of each of the rats were recorded. By using the continuous entering into the three different arms as one correct alternate reaction, the time quantity of the correct alternate reactions was recorded. The spontaneous alternate reaction rate is used to reflect the capacity of space working memory.

[2] = tested on: rats induced by Aβ1-42; assay: rat Morris water-maze experiment, Aβ1-42 AD model; format: in vivo, Sprague Dawley rats; conditions: 30 mg/kg
Procedure: (§3) The mice were randomly divided into 6 groups, a sham-operation control group, a model group, three groups were fed with 25, 50 and 100 mg/kg of carrimycin, and one group was fed with 30 mg/kg of the positive drug resveratrol.
(§4) Experimental process: Aβ1-42 was dissolved by using a hexafluoroisopropanol/sterile normal-saline solution to obtain the concentration of 2 μg/μL, incubated and aged at 4° C. for 24 h to form a AO oligomer, and reserved. […] 2.5 μL, (0.5 μL/min) was injected within 5 min into each side of the hippocampus, and the needle was retained for 5 min, to result in a rat dementia model.
On the next day after the model was established, the sham-operation control group and the model group were administered intragastrically by using the corresponding solvents, the other experimental groups were administered intragastrically by using 25, 50 and 100 mg/kg of carrimycin and 30 mg/kg of the positive drug resveratrol. On the 12th day after Aβ1-42 was injected into the hippocampus, the experiments of Y maze, new-object distinguishing and water maze were carried out in sequence. Continue to administer during the behavioral experiment 1 time per day till the behavioristics end.
The rat water-maze experiment: on the 16-20th day after the administration, the Morris water-maze experiment was performed on the groups of rats. The Morris water-maze experiment aims at investigating the influence by Carrimycin on the space studying memory disorder. The water-maze apparatus is composed of a black stainless-steel circular water pool with the diameter of 1.5 meters and the height of 50 centimeters and a circular metal platform with the diameter of 10 centimeters, and the platform can freely move. Before the experiment, the water pool was filled with water (water temperature 24±1° C.) to cause the water level to be above the platform by 1 centimeter. In the training phase, training is performed 1 time in the morning and afternoon per day for 6 days. […]

[3] = tested on: rats induced by Aβ1-42; assay: rat new-object-distinguishing experiment, Aβ1-42 AD model; set-up: species or system Sprague Dawley rats; conditions: in vivo
Procedure: as §3, §4
On the next day after the model was established, the sham-operation control group and the model group were administered intragastrically by using the corresponding solvents, the other experimental groups were administered intragastrically by using 25, 50 and 100 mg/kg of carrimycin and 30 mg/kg of the positive drug resveratrol. […]
The rat new-object-distinguishing experiment: on the 14-15th day after the administration, the new-object-distinguishing experiment was performed on the groups of rats. […] The test was performed on the third day, in which each time one rat was placed into the open field to firstly freely explore for 3min, and was then taken out, 2 same objects (A1, A2) were placed into the center of the open field, the rat was placed into the open field, and the durations (tA1, tA2) during which the rat exploreed the two objects within 5 min were recorded. After 1 h, the object A2 was replaced with a new object B, the rat was placed into the open field again, and the durations (tA1, tB) during which the rat explored the two objects were recorded. After 24 h, the object B was replaced with an object C, the rat was placed into the open field again, and the durations (tA1, tC) during which the rat explored the two objects were recorded. […] The preferential index and the discrimination index to the new objects are calculated. […]

[4] = tested on: diabetes mouse; assay: fasting insulin (ELISA) and insulin resistance of alloxan diabetes mice; format: in vivo, Kunming mice; conditions: 200 mg/kg; 45 days; fasting blood sugar*fasting insulin/22.5
Procedure: (§1) The study on the effect of Carrimycin on reducing blood sugar comprises Kunming mice was selected, single intraperitoneal injection with 160 mg/kg of alloxan was subjected to Kunming mice to form model mice. The mice whose values of blood sugar are stable at the modeling level (10˜25mmol/L) were selected, divided randomly into a model control group, a positive control group (200 mg/kg of metformin) and an administration group (with Carrimycin as the drug, 25, 50 and 100 mg/kg). Simultaneously a normal control group was provided, and was given gastric normal saline.
After the model was made and gavage was given for 45 days, the mice were fasted for 16 h, and blood was collected from the fundus venous plexus. Before taking blood, the capillary was moistened with heparin, 0.5 ml of blood was collected from the fundus venous plexus, centrifuged at 3500 r/min for 10 min, and plasma was separated for testing. The supernatant was sucked, and the insulin was measured by using the ELISA method. […]
The measurement of the insulin resistance: after the concentrations of fasting blood sugar and insulin have been measured, the insulin resistance was calculated by using the formula: insulin resistance=fasting blood sugar*fasting insulin/22.5 (it is recently reported that when it is>2.6, it is determined that insulin resistance exists).

[5] = tested on: diabetes mouse; assay: fasting blood sugar of alloxan diabetes mice; format: in vivo, Kunming mice; conditions: 200 mg/kg
Procedure: as §1
(§2) After the model was made and gavage was given for 30 and 45 days, the mice were fasted for 16 hours, and the mice were weighed. After weighing, blood was collected at the tail tip, and the fasting blood sugar was measured by using a blood-sugar meter. After the value of fasting blood sugar was measured, the […] were administered by intragastric administration once. After 2 h, mice in each group were given a glucose solution by gavage at 2 g/kg, and blood was collected at the tip of the tail. The blood sugar values at 0, 0.5 and 2 h were measured after the administration of glucose (Bg0, Bg0.5 and Bg2), and the area (AUC) (reaction sugar tolerance) under the blood sugar curve was calculated by using the following formula: AUC=0.25*(Bg0+4*Bg0.5+3*Bg2); and […]

[6] = tested on: diabetes mouse; assay: sugar tolerance of diabetes mouse (glucose 2 g/kg by gavage); format: in vivo, Kunming mice; conditions: 200 mg/kg; for Blood sugar value 0 h: 0 h after glucose; for Blood sugar value 0.5 h: 0.5 h after glucose; for Blood sugar value 2 h: 2 h after glucose
Procedure: as §1, §2

[7] = tested on: INS-1 cell; assay: protection of INS-1 islet cell against alloxan damage (MTT); format: cell-based, Rat; conditions: 0.5 mM; 24 mmol/L alloxan damage, 24 h
Procedure: the INS-1 cell was the adherent cell, the INS-1 cell in the logarithmic growth phase was used, digested by using trypsin, beated by using a complete medium, and prepared into a single-cell suspension. The cell concentration was adjusted to be 1*10^5/ml, and the cell was inoculated into the 96-well culture plate with 100 μl per well, cultured in the incubator at 5% CO2 and 37° C. for 24 h. The cells were grouped according to the demands of the experiment, the cell of the administration groups were administered with 24 mmol/L of alloxan damage, simultaneously were administered with the drug to be tested Carrimycin with different concentrations (0.2, 0.4 and 0.8 mM), 4 complex wells for each of the concentrations were provided, and all groups were continued to be cultured at 37° C. for 24 h. Additionally a normal control group (no medication administered), a model group (merely administered with alloxan damage) and a positive control group (based on the alloxan treatment, 0.5 mmol/L of metformin was added) were provided. […] And the optical density of all groups were measured by using a microplate reader at 492 nm.
The survival rate of the INS-1 cell treated by the drug is calculated by using the following formula: Survival rate of INS cell (%)=A492 (administration group)/A492 (normal control group)×100%

[8] = body weight of alloxan diabetes mice; format: in vivo, Kunming mice; conditions: 200 mg/kg, gavage
Procedure: as §1, §2

Oc1ccc(C=Cc2cc(O)cc(O)c2)cc1 [Resveratrol, resveratrol]
total time quantities of entering the arms ([1]; between groups, FIG. 2): did not have a significant difference | Y-maze spontaneous alternate reaction rate ([1]; compared with the model group, FIG. 1): significantly increased | escape latent periods ([2]; 2nd day, trend maintained on 3rd and 4th days, compared with the model group, FIG. 7): significantly decreased | swimming speeds ([2]; between groups, FIG. 9): did not have a significant difference | time quantities of passing through of the platform ([2]; compared with the model group, FIG. 8): significantly increased | Discrimination index on A1 and A2 (%) [3]: 52.87 ± 5.43% | discrimination indexes on the new objects [3]: significantly increased | preferential indexes on the new objects [3]: significantly increased

CN(C)C(=N)N=C(N)N [metformin]
Insulin resistance (IR) [4]: 1.06^**### | blood sugar, 0 day ([5]; 0 day): 18.07 ± 1.26^*** mmol/L | blood sugar, 30th day ([5]; 30th day, fasted 16 h): 14.94 ± 1.03^**# mmol/L | blood sugar, 45th day ([5]; 45th day, fasted 16 h): 10.24 ± 1.07^*## mmol/L | AUC under the blood sugar curve ([6]; 30th day): 33.6 ± 2.7^**# | Blood sugar value 0 h ([6]; 30th day): 14.6 ± 1.4^** | Blood sugar value 0.5 h ([6]; 30th day): 19.8 ± 1.8^**## | Blood sugar value 2 h ([6]; 30th day): 13.5 ± 1.9^**# | AUC under the blood sugar curve ([6]; 45th day): 32.3 ± 2.1^**# | Blood sugar value 0 h ([6]; 45th day): 14.1 ± 1.5^** | Blood sugar value 0.5 h ([6]; 45th day): 18.9 ± 1.7^**# | Blood sugar value 2 h ([6]; 45th day): 13.2 ± 1.7^**# | Survival rate (%) [7]: 92.91 ± 6.69 % | Body weight gain on 30th day [8]: 5.94 ± 1.03 g | Body weight gain on 45th day [8]: 7.26 ± 1.48 g
